Data published in patent publication US9403756B2, “N-phenyl anthranilic acid derivatives and uses thereof” (Ramot at Tel-Aviv University Ltd., priority 2007, dated 2016).

Key:
[1] = system: primary hippocampal neurons; test: Spontaneous and miniature EPSCs/IPSCs in primary hippocampal neurons, voltage-clamp; assay type: cell-based, rat; conditions: for effect on amplitude of miniature EPSCs and IPSCs: NH29 at 25 μM, data not shown
Procedure: For hippocampal neuronal cultures, Sprague-Dawley rat embryos (E18) were removed by caesarian section and their hippocampi were dissected out. The tissue was digested with papain for 20 min, triturated to a single-cell suspension, and plated at a density of 40,000 cells per ml on a substrate of bovine collagen type IV and 100 μg/ml poly-L-lysine in 13 mm diameter glass coverslips of a 24-multiwell plate. The culture medium consisted of Modified Eagle's Medium containing 5% horse serum (Biological Industries, Beit HaEmek, Israel), B-27 neuronal supplement (Invitrogen, Carlsbad, Calif.), 100 U/ml penicillin, 100 μg/ml streptomycin, and 2 mM glutamine. D-glucose was supplemented to a final concentration of 6 g/l. Cytosine-1-D-arabinofuranoside (5 μM) was added after 5 days to arrest glial cell proliferation.
For electrophysiological recordings hippocampal neurons were used at 10-14 days in culture. All cultures were maintained at 37° C. in humidified air containing 5% CO2.
Spontaneous excitatory postsynaptic currents (EPSCs) were recorded in the voltage-clamp configuration of the whole-cell patch-clamp technique at a holding potential of −70 mV as previously described; the extracellular solution contained (in mM) 160 NaCl, 2.5 KCl, 10 HEPES, 10 glucose, 2 CaCl2; pH 7.3 (325 mOsm), to which 30 μM picrotoxin and 10 μM bicuculline methyl iodide were added. The intracellular solution consisted (in mM) of 130 K-gluconate, 10 KCl, 1.1 EGTA, 10 HEPES, 1 MgCl2, 2 Na2ATP, 0.1 CaCl2 and 5 QX314Br to block Na^+ currents; pH 7.2 (315 mOsm).
Spontaneous inhibitory postsynaptic currents (IPSCs) were recorded at a holding potential of −70 mV; the extracellular solution contained (in mM) 160 NaCl, 2.5 KCl, 10 HEPES, 10 glucose, 2 CaCl2; pH 7.3 (325 mOsm), to which 10 μM NBQX and 10 μM AP-5 were added. The intracellular solution consisted (in mM) of 144 CsCl, 10 HEPES, 1.1 EGTA, 0.1 CaCl2, 5 MgCl2, 2 Na2ATP, 5 QX314 Br; pH 7.3 (315 mOsm).
Data analysis was performed using the Clampfit program (pClamp 9.2, Molecular Devices), Microsoft Excel (Microsoft) and Prism 4.0 (GraphPad). Chord conductance (G) was calculated by using the following equation: G=I/(V−Vrev) where I corresponds to the current amplitude measured at the end of the pulse and Vrev, the calculated reversal potential. G was estimated at various test voltages V and then, normalized to a maximal conductance value, Gmax. Activation curves were fitted by one Boltzmann distribution: G/Gmax=1/{1+exp[(V50−V)/s]} where V50 is the voltage at which the current is half-activated and s is the slope factor. All data were expressed as mean±SEM. Statistically significant differences were assessed by Student's t-test. Analysis of sEPSCs and sIPSCs was done using the Clampfit program (pClamp 9.2, Molecular Devices) and included evaluation of the individual events as well as the average event amplitude and the integral of the event (total charge transfer).
Because of their slow activation and their lack of inactivation, M-channels could modulate neuronal activity during repetitive spike discharge and tune neurotransmitter release. FIG. 6 illustrates the effect of NH25 on synaptic transmission and transmitter release. Spontaneous excitatory and inhibitory post-synaptic currents (sEPSCs and sIPSCs) were recorded from dense cultures of primary hippocampal neurons, using the voltage-clamp configuration of the whole-cell patch-clamp technique.

COX = test: Anti-COX activity in cell culture, CT26 and D122 cell lines (results in words); assay type: cell-based, mouse; conditions: COX-dependent synthesis of PGE2
Procedure: Mouse colon adenocarcinoma CT26 and mouse lewis lung carcinoma D122 cells were grown in DMEM (D122) or RPMI (CT26) supplemented with 10% fetal calf serum, 4% glutamine, 1% penicillin-streptomycin-nystatin and 3% non essential amino acids (D122) and were kept in a humidified 37° C. incubator with 5% CO2. For the COX activity assays, cells were grown onto 24 multi-well plates.
Before the assay, cells were washed with serum-free medium; then the tested compounds were added to the medium and incubated for 30 minutes at 37° C. after which 30 μM arachidonic acid were added and incubated for additional 20 minutes. At the end of the incubation period, 10 μM Indomethacin were added to stop the reaction and medium was transferred to another 24 multi-well plate for measuring PGE2 production by radioimmunoassay (DuPont-NEN; Boston Mass.) according to manufacturer protocol. Protein determination was assayed on scraped cells using the Bradford method (1976) [Bradford M. M. 1976. Anal. Biochem. 72:248-254], with BSA as a standard and was used to normalize the amount of PGE2 production.
The anti-COX activity of NH25, NH29 and NH30 was examined in Mouse colon adenocarcinoma CT26 and mouse lewis lung carcinoma D122 cell lines. Cells were incubated with each of the tested compounds and the level of the COX-dependent synthesis of PGE2 was quantified using radioimmunoassay techniques.

KCNQ2 mutant I209L = biological target: T1, KCNQ2 mutant I209L (Homo sapiens, UniProt O43526, I209L); test: KCNQ2 S4 mutant I209L; assay type: cell-based; conditions: NH29
T1 construct: expressed in transfected cells; host or cells: CHO cells
From the text: FIGS. 12A-F present the potentiating effect of NH29, an exemplary channel opener compound according to embodiments of the present invention, on selected KCNQ2 mutants. Shown are bar diagrams comparing the potentiating effect of NH29 on native KCNQ2 and KCNQ2 mutants, wherein the mutated amino acids are located at the S1-S2 helix region (FIG. 12A) or S4 helix region (FIG. 12D) and wherein the opener effect is expressed as percent of the control current in the absence of the opener. For comparison, marked as a green line, is the observed current increase of native KCNQ2 by NH29. FIGS. 12B 12C, 12E and 12F present representative traces recorded from CHO cell transfected with the KCNQ2 mutant S122A, S121A, L206C and R201A respectively, before and after external application of 25 μM of NH29 and wherein the membrane potential was stepped from −90 mV holding potential to −40 mV for 1.5 seconds pulse duration.
Voltage-clamp recordings in CHO cells were performed, using the whole-cell configuration of the patch-clamp technique. Signals were amplified using an Axopatch 200B patch-clamp amplifier (Molecular Devices, Sunnyvale, Calif.), sampled at 2 kHz and filtered at 800 Hz via a 4-pole Bessel low pass filter. […] Series resistances (3-13 MΩ) were compensated (75-90%) and periodically monitored.

T1 sequence (O43526 whole entry I209L): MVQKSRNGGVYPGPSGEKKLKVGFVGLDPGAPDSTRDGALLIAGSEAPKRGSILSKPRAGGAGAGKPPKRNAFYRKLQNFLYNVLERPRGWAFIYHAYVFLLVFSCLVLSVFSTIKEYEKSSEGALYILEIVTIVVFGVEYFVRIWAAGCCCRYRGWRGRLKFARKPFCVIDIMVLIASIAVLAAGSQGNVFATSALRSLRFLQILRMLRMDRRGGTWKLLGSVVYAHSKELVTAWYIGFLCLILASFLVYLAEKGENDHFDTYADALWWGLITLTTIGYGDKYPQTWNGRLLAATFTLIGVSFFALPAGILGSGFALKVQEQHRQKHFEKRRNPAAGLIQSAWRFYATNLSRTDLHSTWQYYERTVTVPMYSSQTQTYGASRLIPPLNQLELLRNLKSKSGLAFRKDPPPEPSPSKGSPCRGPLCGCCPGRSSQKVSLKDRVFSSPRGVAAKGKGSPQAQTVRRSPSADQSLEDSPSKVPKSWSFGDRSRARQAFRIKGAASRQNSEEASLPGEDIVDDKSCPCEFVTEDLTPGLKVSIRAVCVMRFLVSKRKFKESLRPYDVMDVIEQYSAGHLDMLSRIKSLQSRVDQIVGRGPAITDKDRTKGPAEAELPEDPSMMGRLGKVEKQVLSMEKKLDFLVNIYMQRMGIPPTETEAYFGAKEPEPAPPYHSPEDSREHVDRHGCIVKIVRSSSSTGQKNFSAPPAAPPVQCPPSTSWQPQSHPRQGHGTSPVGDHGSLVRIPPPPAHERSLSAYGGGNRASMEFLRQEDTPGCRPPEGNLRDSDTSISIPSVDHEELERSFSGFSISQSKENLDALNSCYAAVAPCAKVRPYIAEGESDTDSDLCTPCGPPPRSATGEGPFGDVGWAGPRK

Row | Structure (SMILES) | effect on amplitude of miniature EPSCs and IPSCs [1] | anti-COX activity (COX) | sensitivity to the activating effect compared to wild-type Kv7.2 (KCNQ2 mutant I209L) | effect on amplitude and kinetics of sIPSCs ([1]; 25 μM) | reduction of charge transfer within the bursts of sEPSCs ([1]; 25 μM) | reduction of total charge transfer of sEPSCs ([1]; 25 μM) | effect on burst duration of sEPSCs ([1]; 25 μM, holding potential −70 mV) | inhibition at 25 µM ([1]; Rattus norvegicus, Hippocampal neuron, 25 μM, holding potential −70 mV, read-out: inhibition of sIPSCs frequency of spontaneous occurrence) [%]
1 | O=C(Cc1cc([N+](=O)[O-])cc([N+](=O)[O-])c1Nc1c(Cl)cc([N+](=O)[O-])cc1Cl)NCCO [NH29] | did not affect | did not exhibit anti-COX activity | significantly less sensitive | – | – | – | – | –
2 | O=C(Cc1cc([N+](=O)[O-])ccc1Nc1c(Cl)cccc1Cl)OCCO [NH25] | did not affect | exhibited anti-COX activity comparable to that of Diclofenac | – | did not significantly affect | about 50% | about 50% | markedly reduced | > 98
